In patent US11925622B2, “Role of novel carbazole linked 1, 2, 3- triazole analogs in alleviating methylglyoxal-mediated late diabetic vascular complications” (priority 2021, dated 2024):
Structures can show the parent of a compound that is named as a salt. Values belong to the compound of their own block, whether it stands above or below them.

Columns and labels:
[1] = tested on: MGO-AGEs-induced ROS in THP-1 monocytes; experiment: Anti-oxidation activity, DCFH-DA assay of MGO-AGEs-mediated ROS in monocytes; assay type: cell-based, human; conditions: for ROS (DCF fluorescence) in MGO-AGEs-treated monocytes: 100 μM (maximum inhibition), MGO-AGEs 50 μg/mL, 24 h
Protocol: Anti-oxidation activity: The measurement of effect of derivatives on AGEs-mediated ROS was based on the previously reported protocol of Soumyarani and colleagues with slight amendments. Initially, 1×10^6 monocytes/mL were loaded in sterile 96-well flat bottom black fluorescent plate, and pre-incubated with DCFH-DA (10 μM; Sigma-Aldrich Chemical Corporation, St. Louis, Missouri, USA) for 45 min at 37° C. Followed by the incubation, antiglycating, non-toxic carbazole-linked triazole derivatives (10, 30, 50, and 100 μM) were added to the wells for 1 h before co-treatment of cells with MGO-AGEs (50 μg/mL) for next 24 h. Next, the fluorometric measurement of converted DCFH into oxidized DCF product was carried out via spectrofluorimeter (Varioskanmicroplate reader, Thermo Fisher Scientific, USA) using 485 nm excitation and 520 nm emission wavelengths. Various controls were plated in each experiment. Wells containing culture RPMI with MGO-AGEs (50 μg/mL) and H2O2 ([…]) served as positive controls, while cells containing BSA were taken as negative control.

[2] = tested on: MGO-mediated BSA glycation; experiment: In vitro antiglycation activity, MGO-BSA glycation assay (fluorescence); assay type: biochemical, bovine; conditions: for IC50 / % inhibition of MGO-BSA glycation: BSA 10 mg/mL, MGO 0.1 M, 24 h, 37° C.; for IC50: read-out: IC50 antiglycation, MGO-BSA model; for % inhibition of MGO-BSA glycation: compounds at 1 mM
Protocol: In vitro antiglycation activity: The MGO-BSA assay was performed as per optimized protocol of Jahan, H. et al with slight modifications. Initially, the antiglycation activity of parent compound carbazole (1), and carbazole-linked 1,2,3 triazoles 2-16 were identified at 1 mM using MGO-BSA model. […] BSA (10 mg/mL) incubated with MGO (0.1 M) for 24 h at 37° C. using phosphate-azide buffer (0.1 mM), served as a positive control. The wells with BSA only were taken as negative control. Whereas, rutin and quercetin were used as standard antiglycation agents. After 24 h of incubation, the fluorescence of each well was measured by using microplate reader (Varioskan lux, Thermo Fisher Scientific, 319 Scientific, USA) at 355 nm excitation, and 460 nm emission.
The % inhibition of MGO-BSA-mediated by carbazole-triazole derivatives was quantified by using the following formula: […]
The IC50 of active antiglycation compounds were identified by using EZ-FIT Enzyme Kinetics Program (Perrella Scientific Inc., Amherst, USA).

HepG2 cell line = experiment: Cytotoxicity, MTT assay in hepatocytes; assay type: cell-based, human; conditions: 24 h
Protocol: (§1) Cytotoxicity analysis: The cytotoxic profile of the compounds was determined by using the MTT assay in hepatocytes (HepG2 cell line), and WST-1 assay in human monocytes (THP-1 cell line) as per the manufacturer's protocols. […] Doxorubicin treated cells were used as a positive control, while cells with culture medium served as negative control. Wells with culture medium served as a blank. Followed by the incubation, 20 μL of MTT were added in each well. […] The absorbance was measured by using 540, and 450 nm, respectively ([…] reader, Thermo Fisher, 319 Scientific, USA).

THP-1 cell line = experiment: Cytotoxicity, WST-1 assay in human monocytes; assay type: cell-based; conditions: 24 h
Protocol: as §1

COX-2 = COX-2 protein levels analysis by immunoblotting; assay type: cell-based; conditions: human monocytes co-treated with MGO-AGEs 50 μg/mL; immunoblot densitometry
Protocol: COX-2 protein levels analysis: The 50 μg/mL of protein was loaded onto 10% sodium dodecyl sulfate-polymerized acrylamide gel electrophoresis (SDS-PAGE), and transferred to nitrocellulose membranes using power blotter XL System (Invitrogen; Thermo Fisher Scientific). Subsequently, the membrane was incubated for 1 h in 1% bovine serum albumin in PBS with 0.1% Tween-20 to block unspecified binding. The protein bands of the membrane were probed with primary monoclonal antibody COX-2 (Thermo Fisher Scientific, Waltham, MA, USA), and B-actin (Cloud-Clone Corp., Wuhan, China) for overnight at 4° C. Following incubation, the membrane was rinsed with tris buffer saline tween (TBST) three times, and then exposed to secondary antibody (HRP mouse mono anti-rabbit IgG; Abeam, Cambridge, UK) at room temperature for an hour. The washing was again carried three times with TBST, and then the membrane was exposed to ECL (Sangon biotech, Shanghai, China) to visualize the bands in Western Blot Detection System (Thermo Fisher Scientific, Waltham, MA, USA). The densitometry of immuno-positive COX-2, and β-actin bands was used by Image J.

[3] = tested on: NF-κB (p65) translocation in monocytes; experiment: NF-κB (p65) translocation analysis by immunocytochemistry; assay type: cell-based, human; conditions: compounds 100 μM, 1 h pre-incubation; AGEs 50 μg/mL 1 h; MGO-AGEs control 75 RFU, BSA 11 RFU
Protocol: NF-κB (p^65) translocation analysis: The monocytes at the density of 1×10^6 cells/mL were pre-incubated with compounds (100 μM) for an h, and then co-incubated with AGEs (50 μg/mL) for another 1 h in a 24-well plate at 37° C. Following treatment, cells were fixed with paraformaldehyde (4% PFA; 10 min), and permeabilized with Triton X-100 (0.2%; 10 min). Next, the cells were rinsed with chilled PBS three times, and incubated with bovine serum albumin (1% BSA; 1 h) to block the non-specific binding sites. Cells were exposed to primary antibody against NF-κB (p 65) (1:300 dilution, Thermo Fisher Scientific, Waltham, MA, USA) for overnight at 4° C. Subsequently followed by washing the cells with chilled PBS three times, secondary antibody (polyclonal fluorescein isothiocyanate (FITC)-conjugated antibody) to rabbit IgG (1:1000 dilution, Abeam, Cambridge, UK) was used.
Nuclei were counterstained by using DAPI (Thermo Fisher Scientific, Waltham, MA, USA). The BSA-treated monocytes (50 μg/mL) had served as a negative control, while AGEs-treated monocytes (50 μg/mL) as positive control. All the images were taken by using Nikon microscope (Nikon, Tokyo, Japan). The quantification of images was carried out via ImageJ (Image processing and analysis in Java-NIH).

- IC50 [2]: 333 ± 10 µM
Structure (SMILES): c1ccc2c(c1)c1ccccc1n2Cc1cn(Cc2ccc(Cn3cc(Cn4c5ccccc5c5ccccc54)nn3)cc2)nn1 [Compound 15, 1,4-Bis ((4-((9H-carbazol-9-yl)methyl)-1H-1,2,3-triazol-1yl)methyl) benzene]
- ROS (DCF fluorescence) in MGO-AGEs-treated monocytes [1]: 10.6 RFU
- antiglycation activity in MGO-BSA model (in words) [2]: good activity
- % inhibition of MGO-BSA glycation [2]: 71%

Structure (SMILES): O=C(Cn1cc(Cn2c3ccccc3c3ccccc32)nn1)c1ccccc1 [Compound 2, 2-(4-((9H-Carbazole-9-yl)methyl)-1H-1,2,3-triazole-1-y1)-1-phenylethan-1-one]
- antioxidant activity / ROS production inhibition (in words) ([1]; MGO-AGEs 50 μg/mL-treated THP-1 monocytes): inactive
- antiglycation activity in MGO-BSA model (in words) [2]: weak potential
- IC50 [2]: 797 ± 7 µM
- % inhibition of MGO-BSA glycation [2]: 58%

Structure (SMILES): Cc1cccc(C(=O)Cn2cc(Cn3c4ccccc4c4ccccc43)nn2)c1 [Compound 8, 2-(4-((9H-Carbazole-9-yl)methyl)-1H-1,2,3-triazole-1-y1)-1-(m-tolyl)ethan-1-one]
- % Inhibition ± SD Hep-G2 (HepG2 cell line; 1 μM): 6.4 ± 2.2%
- % Inhibition ± SD Hep-G2 (HepG2 cell line; 10 μM): 8.7 ± 4.8%
- % Inhibition ± SD Hep-G2 (HepG2 cell line; 30 μM): 47.3 ± 2.2%
- % Inhibition ± SD Hep-G2 (HepG2 cell line; 50 μM): 54.5 ± 0.7%
- % Inhibition ± SD Hep-G2 (HepG2 cell line; 100 μM): 66.9 ± 1.9%
- % Inhibition ± SD Hep-G2 (HepG2 cell line; 250 μM): 74.1 ± 1.9%
- % Inhibition ± SD Hep-G2 (HepG2 cell line; 500 μM): 86.7 ± 5.8%
- % Inhibition ± SD THP-1 (THP-1 cell line; 1 μM): 35.5 ± 1.1%
- % Inhibition ± SD THP-1 (THP-1 cell line; 10 μM): 42.1 ± 0.4%
- % Inhibition ± SD THP-1 (THP-1 cell line; 30 μM): 43 ± 4.3%
- % Inhibition ± SD THP-1 (THP-1 cell line; 50 μM): 43.9 ± 0.7%
- % Inhibition ± SD THP-1 (THP-1 cell line; 100 μM): 46.7 ± 2.0%
- % Inhibition ± SD THP-1 (THP-1 cell line; 250 μM): 73.6 ± 1.9%
- % Inhibition ± SD THP-1 (THP-1 cell line; 500 μM): 99.5 ± 0.3%
- antiglycation activity in MGO-BSA model (in words) [2]: good activity
- IC50 [2]: 130 ± 10 µM
- % inhibition of MGO-BSA glycation [2]: 79%

Structure (SMILES): Cc1ccccc1C(=O)Cn1cc(Cn2c3ccccc3c3ccccc32)nn1 [Compound 7, 2-(4-((9H-Carbazole-9-yl)methyl)-1H-1,2,3-triazole-1-y1)-1-(o-tolyl)ethan-1-one]
- % Inhibition ± SD Hep-G2 (HepG2 cell line; 1 μM): 12.3 ± 3.7%
- % Inhibition ± SD Hep-G2 (HepG2 cell line; 10 μM): 21.8 ± 4.7%
- % Inhibition ± SD Hep-G2 (HepG2 cell line; 30 μM): 21.8 ± 1.5%
- % Inhibition ± SD Hep-G2 (HepG2 cell line; 50 μM): 41.1 ± 3.5%
- % Inhibition ± SD Hep-G2 (HepG2 cell line; 100 μM): 50.3 ± 3.9%
- % Inhibition ± SD Hep-G2 (HepG2 cell line; 250 μM): 59.8 ± 15.5%
- % Inhibition ± SD Hep-G2 (HepG2 cell line; 500 μM): 78.4 ± 2.2%
- % Inhibition ± SD THP-1 (THP-1 cell line; 1 μM): 21 ± 8.8%
- % Inhibition ± SD THP-1 (THP-1 cell line; 10 μM): 27 ± 4.2%
- % Inhibition ± SD THP-1 (THP-1 cell line; 30 μM): 34.6 ± 6.5%
- % Inhibition ± SD THP-1 (THP-1 cell line; 50 μM): 32.1 ± 0.4%
- % Inhibition ± SD THP-1 (THP-1 cell line; 100 μM): 50.7 ± 5.3%
- % Inhibition ± SD THP-1 (THP-1 cell line; 250 μM): 80.8 ± 5.1%
- % Inhibition ± SD THP-1 (THP-1 cell line; 500 μM): 79.5 ± 5.8%
- antiglycation activity in MGO-BSA model (in words) [2]: good activity
- IC50 [2]: 275 ± 5 µM
- % inhibition of MGO-BSA glycation [2]: 72%

- IC50 [2]: 138 ± 4 µM
Structure (SMILES): O=c1c(O)c(-c2ccc(O)c(O)c2)oc2cc(O)cc(O)c12 [Quercetin, 2-(3,4-dihydroxyphenyl)-3,5,7-trihydroxy-4H-chromen-4-one, reference compound]
- reduction in COX-2 levels compared to MGO-BSA-treated cells (COX-2): 1.31 fold
- ROS (DCF fluorescence) in MGO-AGEs-treated monocytes [1]: 8.39 RFU
- NF-κB translocation in MGO-AGEs-treated monocytes [3]: 55 RFU
- % inhibition of MGO-BSA glycation [2]: 58%

Structure (SMILES): c1ccc2c(c1)[nH]c1ccccc12 [carbazole]
- % inhibition of MGO-BSA glycation [2]: 36.7%

Structure (SMILES): COc1cccc2c1C(=O)c1c(O)c3c(c(O)c1C2=O)C[C@@](O)(C(=O)CO)C[C@@H]3OC1C[C@H](N)[C@H](O)[C@H](C)O1 (stereo partly drawn) [Doxorubicin, (7S,9S)-7-[(4S,5S,6S)-4-amino-5-hydroxy-6-methyloxan-2-yl]oxy-6,9,11-trihydroxy-9-(2-hydroxyacetyl)-4-methoxy-8,10-dihydro-7H-tetracene-5,12-dione; hydrochlorid, reference compound]
- inhibition at 1 µM (HepG2 cell line; Homo sapiens, HepG2, 1 μM, read-out: % Inhibition ± SD Hep-G2): 30.4 ± 5.3%
- inhibition at 10 µM (HepG2 cell line; Homo sapiens, HepG2, 10 μM, read-out: % Inhibition ± SD Hep-G2): 28.3 ± 4.8%
- inhibition at 30 µM (HepG2 cell line; Homo sapiens, HepG2, 30 μM, read-out: % Inhibition ± SD Hep-G2): 64 ± 0.4%
- inhibition at 50 µM (HepG2 cell line; Homo sapiens, HepG2, 50 μM, read-out: % Inhibition ± SD Hep-G2): 58 ± 2.4%
- inhibition at 100 µM (HepG2 cell line; Homo sapiens, HepG2, 100 μM, read-out: % Inhibition ± SD Hep-G2): 62.6 ± 0.2%
- inhibition at 250 µM (HepG2 cell line; Homo sapiens, HepG2, 250 μM, read-out: % Inhibition ± SD Hep-G2): 69.8 ± 10%
- inhibition at 500 µM (HepG2 cell line; Homo sapiens, HepG2, 500 μM, read-out: % Inhibition ± SD Hep-G2): 87.1 ± 2.2%
- inhibition at 1 µM (THP-1 cell line; Homo sapiens, THP-1, 1 μM, read-out: % Inhibition ± SD THP-1): 34.2%
- inhibition at 10 µM (THP-1 cell line; Homo sapiens, THP-1, 10 μM, read-out: % Inhibition ± SD THP-1): 60.2 ± 0.6%
- inhibition at 30 µM (THP-1 cell line; Homo sapiens, THP-1, 30 μM, read-out: % Inhibition ± SD THP-1): 63.2 ± 0.4%
- inhibition at 50 µM (THP-1 cell line; Homo sapiens, THP-1, 50 μM, read-out: % Inhibition ± SD THP-1): 64.5 ± 2.4%
- inhibition at 100 µM (THP-1 cell line; Homo sapiens, THP-1, 100 μM, read-out: % Inhibition ± SD THP-1): 67.3 ± 0.2%
- inhibition at 250 µM (THP-1 cell line; Homo sapiens, THP-1, 250 μM, read-out: % Inhibition ± SD THP-1): 76.4 ± 10%
- inhibition at 500 µM (THP-1 cell line; Homo sapiens, THP-1, 500 μM, read-out: % Inhibition ± SD THP-1): 94.3 ± 2.3%

Structure (SMILES): O=C(Cn1cc(Cn2c3ccccc3c3ccccc32)nn1)c1cccc([N+](=O)[O-])c1 [Compound 11, 2-(4-((9H-Carbazole-9-yl)methyl)-1H-1,2,3-triazole-1-y1)-1-(3-nitrophenyl)ethan-1-one]
- ROS (DCF fluorescence) in MGO-AGEs-treated monocytes [1]: 9.06 RFU
- antiglycation activity in MGO-BSA model (in words) [2]: good activity
- IC50 [2]: 147 ± 10 µM
- % inhibition of MGO-BSA glycation [2]: 75.7%
